# Molecular target: T1, rat spleen 20S immunoproteasome (Rattus norvegicus, UniProt P28064+P28077)
# T1 construct: rat spleen 20S immunoproteasome (Boston Biochem, 0.25 nM final); purchased Boston Biochem; host or cells: rat spleen (tissue-derived 20S immunoproteasome)
# Assay: Rat 20S (PA28 activation) β1i and β5i Proteasome Assays (result stated for one or both)
# Assay type: biochemical
# Details: human PA28 activator, Ac-PAL-AMC (β1i) or Ac-ANW-AMC (β5i) substrate, not stated which of the two assays
# Protocol: Rat 20S (PA28 activation) β1i Proteasome Assay
# (§1) To 1 µL of test compound dissolved in DMSO in a 384-well black microtiter plate is added 25 µL of assay buffer at 37 °C containing human PA28 activator (Boston Biochem, 12 nM final) with Ac-PAL-AMC (•1i selective substrate) (40 µM final), followed by 25 µL of assay buffer at 37 °C containing rat spleen 20S immunoproteasome (Boston Biochem, 0.25 nM final). Assay buffer is composed of 20 mM HEPES, 0.5 mM EDTA and 0.01% BSA, pH7.4. The reaction is followed on a BMG Galaxy plate reader (37 °C, excitation 380 nm, emission 460 nm, gain 20). Percent inhibition is calculated relative to 0% inhibition (DMSO) and 100% inhibition (10 µM bortezomib) controls.
# Rat 20S (PA28 activation) β5i Proteasome Assay
# as §1, with “Ac-ANW-AMC •5i” for “Ac-PAL-AMC (•1i”, “substrate (30” for “substrate) (40”, “final)” for “final),”, “(37°C,” for “(37 °C,”
row,IC50,SMILES
1,≤ 10 µM,"Cc1cccc(C[C@H](NC(=O)C2(NC(=O)c3ccc(Cl)cc3)CC2)B(O)O)c1 [Compound 2, [(1R)-1-[((1-[(4-chlorobenzoyl)amino]cyclopropyl)carbonyl)amino]-2-(3-methylphenyl)ethyl]boronic acid]"
2,≤ 1 µM,"CC(C)C[C@H](NC(=O)[C@]1(NC(=O)c2cnccn2)C[C@H]1c1ccccc1)B(O)O [Compound 3, {(1R)-3-methyl-1-[(((1S,2S)-2-phenyl-1-[(pyrazin-2-ylcarbonyl)amino]-cyclopropyl}carbonyl)amino]butyl)boronic acid]"
3,≤ 1 µM,"CC(C)C[C@H](NC(=O)C1(NC(=O)OCc2ccccc2)CCC1)B(O)O [Compound 18, ((1R)-1-{[(1-{[(benzyloxy)carbonyl]amino}cyclobutyl)carbonyl]amino}-3-methylbutyl)boronic acid]"
4,≤ 10 µM,"Cc1ccc(C[C@H](NC(=O)C2(NC(=O)c3cnccn3)CC2)B(O)O)cc1 [Compound 19, {(1R)-2-(4-methylphenyl)-1-[({1-[(pyrazin-2-ylcarbonyl)amino]cyclopropyl}-carbonyl)amino]ethyl}boronic acid]"
5,≤ 1 µM,"CC(C)C[C@H](NC(=O)C(C)(C)NC(=O)c1cnc2ccccc2n1)B(O)O [Compound 21, [(1R)-3-methyl-1-({2-methyl-2-[(quinoxalin-2-ylcarbonyl)amino]propanoyl}-amino)butyl]boronic acid]"
6,≤ 1 µM,"CC(C)C[C@H](NC(=O)C1(NC(=O)Cc2ccccc2)CC1)B(O)O [Compound 22, {(1R)-3-methyl-1-[({1-[(phenylacetyl)amino]cyclopropyl}carbonyl)amino]-butyl}boronic acid]"
7,≤ 1 µM,"CC(C)C[C@H](NC(=O)C(C)(C)NC(=O)c1ccc(Cl)cc1)B(O)O [Compound 25, [(1R)-1-({2-[(4-chlorobenzoyl)amino]-2-methylpropanoyl]amino)-3-methylbutyl]boronic acid]"
8,≤ 1 µM,"CC(C)C[C@H](NC(=O)C(C)(C)NC(=O)c1cnccn1)B(O)O [Compound 28, [(1R)-3-methyl-1-({2-methyl-2-[(pyrazin-2-ylcarbonyl)amino]propanoyl}-amino)butyl]boronic acid]"
9,≤ 1 µM,"CC(C)C[C@H](NC(=O)C1(NC(=O)c2ccccc2C(F)(F)F)CC1)B(O)O [Compound 30, ((1R)-3-methyl-1-{[(1-{[2-(trifluoromethyl)benzoyl]amino}cyclopropyl)-carbonyl]amino)butyl)boronic acid]"
10,≤ 1 µM,"CC(C)C[C@H](NC(=O)C(C)(C)NC(=O)OCc1ccccc1)B(O)O [Compound 32, ((1R)-1-[(2-([(benzyloxy)carbonyl]amino)-2-methylpropanoyl)amino]-3-methylbutyl)boronic acid]"
